Measurements from patent US20050019869A1, “Chimeric neuropeptide Y receptors” (priority 2000, published 2005).
No end group written: not given here.

T1: NPY5ΔY1CT chimeric receptor (Homo sapiens, UniProt P25929+Q15761)
T1 construct: made in house; host or cells: Sf9 insect cells infected with recombinant baculovirus (pBacPAK9 vector); purified membranes
T1 sequence (Q15761+P25929 with tags, fused parts or gaps): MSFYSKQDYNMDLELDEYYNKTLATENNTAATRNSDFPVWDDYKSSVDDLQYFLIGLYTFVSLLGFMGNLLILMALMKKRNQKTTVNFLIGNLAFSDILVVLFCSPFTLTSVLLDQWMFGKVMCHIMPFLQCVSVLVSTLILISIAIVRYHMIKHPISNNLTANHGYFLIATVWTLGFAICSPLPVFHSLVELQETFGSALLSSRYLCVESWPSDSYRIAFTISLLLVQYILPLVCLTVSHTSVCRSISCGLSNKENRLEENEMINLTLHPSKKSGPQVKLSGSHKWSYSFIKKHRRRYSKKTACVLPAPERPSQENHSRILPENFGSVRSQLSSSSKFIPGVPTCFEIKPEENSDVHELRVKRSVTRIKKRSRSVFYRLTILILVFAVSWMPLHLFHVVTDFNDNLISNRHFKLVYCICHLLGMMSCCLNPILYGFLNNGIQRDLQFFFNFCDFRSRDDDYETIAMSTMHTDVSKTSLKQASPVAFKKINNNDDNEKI

T2: NPY5ΔY1IC3 chimeric receptor (Homo sapiens, UniProt Q15761, DEL238-360/INS235IRLKRRNNMMDKMRDNKY/K361S)
T2 construct: made in house; host or cells: Sf9 insect cells infected with recombinant baculovirus (pBacPAK9 vector); purified membranes
T2 sequence (Q15761 with tags, fused parts or gaps INS235IRLKRRNNMMDKMRDNKY/DEL238-360/K361S): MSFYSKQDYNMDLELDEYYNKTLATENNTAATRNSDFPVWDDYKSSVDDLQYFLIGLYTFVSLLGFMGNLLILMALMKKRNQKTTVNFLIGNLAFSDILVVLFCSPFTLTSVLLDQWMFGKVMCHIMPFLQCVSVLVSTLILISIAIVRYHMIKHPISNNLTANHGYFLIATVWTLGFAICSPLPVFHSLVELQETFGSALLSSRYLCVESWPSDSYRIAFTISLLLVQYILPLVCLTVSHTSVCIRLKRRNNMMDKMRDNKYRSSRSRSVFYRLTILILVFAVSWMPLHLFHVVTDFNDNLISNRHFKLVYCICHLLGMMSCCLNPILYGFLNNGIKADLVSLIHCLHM

T3: NPY5 receptor (Homo sapiens, UniProt Q15761)
T3 construct: made in house; host or cells: Sf9 insect cells infected with recombinant baculovirus; purified membranes
T3 sequence (Q15761 with tags, fused parts or gaps): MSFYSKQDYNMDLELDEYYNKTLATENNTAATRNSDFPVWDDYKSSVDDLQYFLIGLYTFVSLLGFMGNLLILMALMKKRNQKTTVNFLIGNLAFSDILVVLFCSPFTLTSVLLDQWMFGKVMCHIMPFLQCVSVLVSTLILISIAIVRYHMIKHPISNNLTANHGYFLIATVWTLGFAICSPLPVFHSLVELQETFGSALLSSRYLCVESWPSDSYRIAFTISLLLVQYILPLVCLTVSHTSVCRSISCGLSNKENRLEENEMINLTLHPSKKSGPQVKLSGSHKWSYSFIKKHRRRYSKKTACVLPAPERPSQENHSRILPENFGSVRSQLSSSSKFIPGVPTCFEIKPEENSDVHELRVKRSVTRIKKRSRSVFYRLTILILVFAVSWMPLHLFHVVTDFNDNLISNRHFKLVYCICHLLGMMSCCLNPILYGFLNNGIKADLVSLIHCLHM

T4: Human Y5 receptor (NPY5) (human, UniProt Q15761 1-445)
T4 construct: Full-length receptor expressed by baculovirus in Sf9 insect cells; assayed in purified Sf9 membranes, not on whole cells; also called native NPY5 receptor; hY5
T4 sequence: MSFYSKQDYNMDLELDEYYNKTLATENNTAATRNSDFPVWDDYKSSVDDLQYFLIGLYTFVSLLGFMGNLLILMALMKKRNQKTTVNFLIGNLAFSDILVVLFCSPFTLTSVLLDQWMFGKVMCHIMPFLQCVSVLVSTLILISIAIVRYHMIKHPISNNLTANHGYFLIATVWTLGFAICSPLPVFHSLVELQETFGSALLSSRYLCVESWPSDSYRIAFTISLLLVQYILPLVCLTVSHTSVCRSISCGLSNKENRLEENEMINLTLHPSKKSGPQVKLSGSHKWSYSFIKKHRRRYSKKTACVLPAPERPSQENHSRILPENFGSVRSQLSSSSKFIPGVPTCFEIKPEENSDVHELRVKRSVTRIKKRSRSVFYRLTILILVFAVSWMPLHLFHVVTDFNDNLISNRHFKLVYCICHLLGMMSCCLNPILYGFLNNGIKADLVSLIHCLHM

T5: Human NPY5ΔY1CT chimera (human)
T5 construct: Human NPY5 with its C-terminal intracellular domain replaced by that of human Y1; Expressed in Sf9 cells; assayed in purified membranes
T5 chain: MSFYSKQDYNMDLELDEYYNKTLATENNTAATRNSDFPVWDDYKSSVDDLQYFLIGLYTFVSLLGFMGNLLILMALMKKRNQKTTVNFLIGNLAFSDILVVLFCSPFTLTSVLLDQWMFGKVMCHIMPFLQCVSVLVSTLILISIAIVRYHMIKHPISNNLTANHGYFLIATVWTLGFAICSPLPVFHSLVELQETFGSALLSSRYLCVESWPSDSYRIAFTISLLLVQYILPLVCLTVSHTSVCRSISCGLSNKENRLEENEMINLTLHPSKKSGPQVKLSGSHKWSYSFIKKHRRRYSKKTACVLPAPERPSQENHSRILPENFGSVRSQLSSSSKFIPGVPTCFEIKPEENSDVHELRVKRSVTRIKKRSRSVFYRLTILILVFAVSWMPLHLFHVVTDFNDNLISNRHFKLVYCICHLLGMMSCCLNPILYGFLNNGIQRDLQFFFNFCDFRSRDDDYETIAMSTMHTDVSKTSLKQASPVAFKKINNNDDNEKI


What was measured:
[1] = target: T1, NPY5ΔY1CT chimeric receptor; assay: [125I]PYY competition binding, Sf9 membranes expressing NPY5ΔY1CT; details: displacement of 0.050 nM [125I]PYY (porcine)
Method: (§1) 72 hours post-infection, a sample of cell suspension was analyzed for viability by trypan blue dye exclusion, and the remaining Sf9 cells were harvested via centrifugation (3000 rpm/10 minutes/4° C.).
(§2) Sf9 cell pellets prepared in Example 3 were resuspended in homogenization buffer (10 mM HEPES, 250 mM sucrose, 0.5 μg/ml leupeptin, 2 μg/ml Aprotinin, 200 μM PMSF, and 2.5 mM EDTA, pH 7.4) and homogenized using a POLYTRON homogenizer (setting 5 for 30 seconds). The homogenate was centrifuged (536×g/10 minutes/4° C.) to pellet the nuclei. The supernatant containing isolated membranes was decanted to a clean centrifuge tube, centrifuged (48,000×g/30 minutes, 4° C.) and resuspended in 30 ml homogenization buffer. This centrifugation and resuspension step was repeated twice. The final pellet was resuspended in ice cold Dulbecco's PBS containing 5 mM EDTA and stored at −80° C. in aliquots until needed. The protein concentration of the resulting membrane preparation was measured using the Bradford protein assay (Bio-Rad Laboratories, Hercules, Calif.).
(§3) Purified P2 membranes, prepared by the method given above in Example 4, were washed with PBS and resuspended by Dounce homogenization (tight pestle) in binding buffer (50 mM Tris-HCl, 5 mM KCl, 120 mM NaCl, 2 mM CaCl2, 1 mM MgCl2, 0.1% BSA, pH 7.4).
(§4) Nonspecific binding was determined in the presence of 1 μM NPY (human, American Peptide Co., Sunnyvale, Calif.) and accounted for less that 10% of total binding. Following a 2-hour incubation at room temperature, the reaction was terminated by rapid vacuum filtration. Samples were filtered over presoaked (in 1.0% polyethyeneimine for 2 hours prior to use) GF/C WHATMAN filters and rinsed 2 times with 5 mLs cold binding buffer without BSA. Remaining bound radioactivity was quantified by gamma counting. Ki and Hill coefficient (“nH”) were determined by fitting the Hill equation to the measured values with the aid of SIGMAPLOT software (SPSS Inc., Chicago).

[2] = target: T2, NPY5ΔY1IC3 chimeric receptor; assay: [125I]PYY competition binding, Sf9 membranes expressing NPY5ΔY1IC3; details: displacement of 0.050 nM [125I]PYY (porcine)
Method: as §1, §2, §3, §4

NPY5 receptor = target: T3, NPY5 receptor; assay: [125I]PYY competition binding, Sf9 membranes expressing NPY5; details: displacement of 0.050 nM [125I]PYY (porcine)
Method: as §1, §2, §3, §4

Human Y5 receptor (NPY5) = target: T4, Human Y5 receptor (NPY5); assay: displacement of 0.050 nM [125I]PYY (porcine) from Sf9 membranes, filtration
Method: (§5) Following a 2-hour incubation at room temperature, the reaction was terminated by rapid vacuum filtration. Samples were filtered over presoaked (in 1.0% polyethyeneimine for 2 hours prior to use) GF/C WHATMAN filters and rinsed 2 times with 5 mLs cold binding buffer without BSA. Remaining bound radioactivity was quantified by gamma counting. Kᵢ and Hill coefficient (“nH”) were determined by fitting the Hill equation to the measured values with the aid of SIGMAPLOT software (SPSS Inc., Chicago).

Human NPY5ΔY1CT chimera = target: T5, Human NPY5ΔY1CT chimera; assay: as above
Method: as §5

| Molecule | nH (Hill coefficient) [1] | nH (Hill coefficient) [2] | nH (Hill coefficient) (NPY5 receptor) | Ki (Human Y5 receptor (NPY5)) [nM] | Ki (Human NPY5ΔY1CT chimera) [nM] |
| --- | --- | --- | --- | --- | --- |
| human NPY 3-36 [HNPY 3-36] | 0.6 | 1.2 | 0.7 | – | – |
| human NPY 13-36 [HNPY 13-36] | 0.5 | 1.0 | 0.7 | – | – |
| human NPY 1-36 [HNPY 1-36] | 0.7 | 1.0 | 0.7 | – | – |
| human D-Trp 32 NPY | 0.9 | 0.8 | 0.7 | – | – |
| PAEDMARYYSALRHYINLITRQRY (peptide, UniProt P01303 41-64, looked up, ends and bridges not checked, range 13-36; also called HNPY 13-36) [human NPY 13-36] | – | – | – | 20 | – |
| APLEPVYPGDNATPEQMAQYAADLRRYINMLTRPRY (peptide, UniProt P01298 30-65, looked up, also called hPP; HPP) [human pancreatic polypeptide] | – | – | – | – | 0.31 |
